According to ChEMBL document CHEMBL5214996, “Design, Synthesis, and Pharmacological Evaluation of Second-Generation Soluble Adenylyl Cyclase (sAC, ADCY10) Inhibitors with Slow Dissociation Rates” (J Med Chem, 2022):
Converted amounts (≈) assume the structure as drawn.

Legend:
[1] = molecular target: T1, Adenylate cyclase type 10 (Homo sapiens, UniProt Q96PN6)
[2] = molecular target: Adenylate cyclase type 10 (Rattus norvegicus, UniProt Q9Z286); assay: Inhibition of rat ADCY10 overexpressed […] assessed as IBMX stimulated cAMP accumulation preincubated for 10 mins followed by IBMX stimulation and measured after 5 mins by ELISA; type: cell-based, 4-4 cell
Adenylate cyclase type 10 (Rattus norvegicus, UniProt Q9Z286), sequence (Q9Z286 whole entry): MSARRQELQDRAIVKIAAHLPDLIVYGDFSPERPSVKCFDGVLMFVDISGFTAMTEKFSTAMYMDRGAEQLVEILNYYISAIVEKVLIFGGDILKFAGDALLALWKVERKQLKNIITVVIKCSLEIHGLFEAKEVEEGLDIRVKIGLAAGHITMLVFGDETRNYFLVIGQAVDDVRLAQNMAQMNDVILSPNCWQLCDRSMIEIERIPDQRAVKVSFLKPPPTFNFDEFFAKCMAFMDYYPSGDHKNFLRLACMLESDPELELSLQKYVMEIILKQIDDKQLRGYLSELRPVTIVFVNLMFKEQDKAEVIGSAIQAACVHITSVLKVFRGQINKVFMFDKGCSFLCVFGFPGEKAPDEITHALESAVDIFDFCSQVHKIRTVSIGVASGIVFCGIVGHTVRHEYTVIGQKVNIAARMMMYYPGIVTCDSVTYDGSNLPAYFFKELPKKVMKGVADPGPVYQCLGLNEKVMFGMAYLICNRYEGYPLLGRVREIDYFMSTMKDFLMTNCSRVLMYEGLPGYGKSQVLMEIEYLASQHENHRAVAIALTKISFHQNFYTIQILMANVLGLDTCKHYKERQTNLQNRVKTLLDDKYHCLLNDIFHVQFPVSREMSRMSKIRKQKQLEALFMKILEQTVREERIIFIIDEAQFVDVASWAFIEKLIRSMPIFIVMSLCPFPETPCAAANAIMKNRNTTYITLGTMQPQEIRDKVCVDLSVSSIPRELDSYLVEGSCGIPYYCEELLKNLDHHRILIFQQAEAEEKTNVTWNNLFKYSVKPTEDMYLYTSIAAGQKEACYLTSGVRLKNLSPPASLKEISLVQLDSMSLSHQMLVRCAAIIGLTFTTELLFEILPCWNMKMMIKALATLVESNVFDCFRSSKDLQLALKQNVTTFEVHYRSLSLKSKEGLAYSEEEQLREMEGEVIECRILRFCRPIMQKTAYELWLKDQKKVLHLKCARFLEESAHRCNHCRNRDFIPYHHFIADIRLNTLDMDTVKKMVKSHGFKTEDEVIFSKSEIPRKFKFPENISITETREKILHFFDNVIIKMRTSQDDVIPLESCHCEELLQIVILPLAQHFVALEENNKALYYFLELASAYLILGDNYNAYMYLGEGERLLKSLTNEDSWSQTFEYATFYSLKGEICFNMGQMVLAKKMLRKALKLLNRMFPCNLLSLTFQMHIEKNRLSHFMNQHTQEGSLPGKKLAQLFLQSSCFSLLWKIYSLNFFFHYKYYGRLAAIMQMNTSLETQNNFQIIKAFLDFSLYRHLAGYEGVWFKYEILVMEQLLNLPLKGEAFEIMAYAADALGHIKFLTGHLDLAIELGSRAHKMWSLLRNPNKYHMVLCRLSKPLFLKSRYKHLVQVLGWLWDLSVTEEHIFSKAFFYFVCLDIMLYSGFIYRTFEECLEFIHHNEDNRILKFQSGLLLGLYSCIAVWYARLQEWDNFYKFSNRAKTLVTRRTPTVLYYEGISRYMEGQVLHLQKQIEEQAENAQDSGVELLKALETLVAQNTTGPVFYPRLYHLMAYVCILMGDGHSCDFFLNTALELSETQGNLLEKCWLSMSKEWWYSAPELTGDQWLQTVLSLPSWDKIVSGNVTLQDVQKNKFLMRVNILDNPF

[3] = AUC(0 to 24 hrs) in CD-1 mouse at 2 mg/kg,iv and measured upto 24 hrs by LC-MS analysis; type: ADME, organism-based; design: dose 2 mg/kg, time < 24 hrs, route iv; conditions: in vivo
[4] = Cmax in CD-1 mouse at 2 mg/kg,iv and measured upto 24 hrs by LC-MS analysis; type: ADME, organism-based; design: time < 24 hrs, dose 2 mg/kg, route iv; conditions: in vivo
[5] = Half life in CD-1 mouse at 2 mg/kg,iv and measured upto 24 hrs by LC-MS analysis; type: ADME, organism-based; conditions: in vivo
[6] = AUC(0 to 24 hrs) in CD-1 mouse at 10 mg/kg,po and measured upto 24 hrs by LC-MS analysis; type: ADME, organism-based; design: time < 24 hrs, dose 10 mg/kg, route po; conditions: in vivo
[7] = Cmax in CD-1 mouse at 10 mg/kg,po and measured upto 24 hrs by LC-MS analysis; type: ADME, organism-based; design: dose 10 mg/kg, time < 24 hrs, route po; conditions: in vivo
[8] = Tmax in CD-1 mouse at 10 mg/kg,po and measured upto 24 hrs by LC-MS analysis; type: ADME, organism-based; conditions: in vivo
[9] = Oral bioavailability in CD-1 mouse at 10 mg/kg and measured upto 24 hrs by LC-MS analysis; type: ADME, organism-based; conditions: in vivo
[10] = AUC(0 to 24 hrs) in CD-1 mouse at 50 mg/kg,po and measured upto 24 hrs by LC-MS analysis; type: ADME, organism-based; design: time < 24 hrs, dose 50 mg/kg, route po; conditions: in vivo
[11] = Cmax in CD-1 mouse at 50 mg/kg,po and measured upto 24 hrs by LC-MS analysis; type: ADME, organism-based; design: time < 24 hrs, dose 50 mg/kg, route po; conditions: in vivo
[12] = Tmax in CD-1 mouse at 50 mg/kg,po and measured upto 24 hrs by LC-MS analysis; type: ADME, organism-based; conditions: in vivo
[13] = Permeability of compound at pH 7.4 at 10 uM incubated for 3 hrs by PAMPA based LC/MS/MS analysis; type: ADME; conditions: pH 7.4, 3 h
[14] = 1-Octanol/water partition coefficient, logD of the compound at pH 7.4 by chromatographic analysis; type: physicochemical
[15] = Kinetic solubility of compound by UV spectroscopy analysis; type: physicochemical; conditions: read-out: Kinetic_solubility
[16] = Cytotoxicity against […] at <20 uM; type: toxicity, cell-based; conditions: 4-4 cell
[17] = molecular target: T1, Adenylate cyclase type 10; remark: listed apart in the source
Description: Binding affinity to human recombinant His-tagged ADCY10 assessed as dissociation constant and measured for 600 sec by SPR analysis

T1 sequence (Q96PN6 whole entry): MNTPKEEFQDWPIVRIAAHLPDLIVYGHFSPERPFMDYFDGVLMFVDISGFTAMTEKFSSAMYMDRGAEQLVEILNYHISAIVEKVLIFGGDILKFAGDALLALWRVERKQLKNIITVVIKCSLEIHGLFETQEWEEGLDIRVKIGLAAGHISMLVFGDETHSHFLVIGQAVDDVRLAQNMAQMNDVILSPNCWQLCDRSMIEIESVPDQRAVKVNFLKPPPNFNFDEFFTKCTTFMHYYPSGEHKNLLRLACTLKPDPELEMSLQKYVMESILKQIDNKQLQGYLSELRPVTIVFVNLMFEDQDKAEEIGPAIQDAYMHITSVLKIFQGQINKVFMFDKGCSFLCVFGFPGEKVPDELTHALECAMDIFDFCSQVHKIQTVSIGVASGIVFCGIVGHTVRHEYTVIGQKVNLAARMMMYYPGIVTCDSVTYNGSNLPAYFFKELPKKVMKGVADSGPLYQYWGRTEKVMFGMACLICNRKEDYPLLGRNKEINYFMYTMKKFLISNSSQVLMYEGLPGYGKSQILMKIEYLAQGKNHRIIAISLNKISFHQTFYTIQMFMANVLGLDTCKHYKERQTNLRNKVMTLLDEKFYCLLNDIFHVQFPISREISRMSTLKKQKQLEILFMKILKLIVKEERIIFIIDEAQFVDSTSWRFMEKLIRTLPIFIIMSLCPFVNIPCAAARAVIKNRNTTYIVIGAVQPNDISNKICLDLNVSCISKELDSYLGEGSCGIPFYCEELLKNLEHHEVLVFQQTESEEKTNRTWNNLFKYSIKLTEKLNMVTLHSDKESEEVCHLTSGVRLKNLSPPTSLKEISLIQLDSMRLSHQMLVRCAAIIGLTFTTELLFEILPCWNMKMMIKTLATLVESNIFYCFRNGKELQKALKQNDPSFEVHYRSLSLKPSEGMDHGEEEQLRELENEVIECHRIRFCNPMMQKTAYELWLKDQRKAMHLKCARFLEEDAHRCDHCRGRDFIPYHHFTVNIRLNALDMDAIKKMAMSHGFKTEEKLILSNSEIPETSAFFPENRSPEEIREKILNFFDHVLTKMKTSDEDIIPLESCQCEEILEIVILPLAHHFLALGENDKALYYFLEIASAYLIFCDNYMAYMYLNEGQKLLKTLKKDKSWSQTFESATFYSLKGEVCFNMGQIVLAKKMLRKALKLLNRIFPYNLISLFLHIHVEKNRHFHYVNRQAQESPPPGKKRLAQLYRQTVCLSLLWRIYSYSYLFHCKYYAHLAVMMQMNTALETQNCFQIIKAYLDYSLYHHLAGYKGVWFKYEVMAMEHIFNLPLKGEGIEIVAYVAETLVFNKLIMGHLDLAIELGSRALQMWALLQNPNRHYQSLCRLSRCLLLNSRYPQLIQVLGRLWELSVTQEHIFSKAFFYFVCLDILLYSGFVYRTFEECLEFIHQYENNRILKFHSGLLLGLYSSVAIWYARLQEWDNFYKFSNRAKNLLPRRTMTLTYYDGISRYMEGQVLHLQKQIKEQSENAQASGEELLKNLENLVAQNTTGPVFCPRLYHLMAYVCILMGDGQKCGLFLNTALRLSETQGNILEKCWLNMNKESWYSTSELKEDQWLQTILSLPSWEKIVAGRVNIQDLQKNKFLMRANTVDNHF

Nc1nc(Cl)cc(-c2nn(C(F)F)cc2Cc2ccccc2)n1
IC50 [1]: 829 nM

Nc1nc(Cl)cc(-c2nn(C(F)F)cc2Cc2ccccc2OCCN2CCS(=O)(=O)CC2)n1
IC50 [2]: 14.6 nM

Nc1nc(Cl)cc(-c2nn(C(F)F)cc2Cc2ccccc2OCCN2CCOCC2)n1
IC50 [2]: 1.9 nM

CC1(O)CCN(CCOc2ccccc2Cc2cn(C(F)F)nc2-c2cc(Cl)nc(N)n2)CC1
IC50 [2]: 16.7 nM

CNC(=O)c1ccccc1Cc1cn(C)nc1-c1cc(Cl)nc(N)n1
IC50 [1]: 1240 nM

Nc1nc(Cl)cc(-c2nn(C(F)F)cc2Cc2ccccc2OCCN2CCNC(=O)C2)n1
IC50 [2]: 5.5 nM

Nc1nc(Cl)cc(-c2nc3ccccn3c2Cc2ccccc2)n1
IC50 [1]: 716 nM

Cn1cc(Cc2cccc(Cl)c2)c(-c2cc(Cl)nc(N)n2)n1
IC50 [1]: 389 nM

Nc1nc(Cl)cc(-c2nn3ccccc3c2Cc2ccccc2)n1
IC50 [1]: 112 nM

Nc1nc(Cl)cc(-c2nn(C(F)F)cc2Cc2ccccc2OCCN2CCO[C@H](CO)C2)n1
IC50 [2]: 22.9 nM

Nc1nc(Cl)cc(-c2nn(C(F)F)cc2Cc2ccccc2OCCN2CCO[C@@H](CO)C2)n1
IC50 [2]: 34.8 nM

CNC(=O)c1cccc(Cc2cn(C)nc2-c2cc(Cl)nc(N)n2)c1
IC50 [1]: 1880 nM

Nc1nc(Cl)cc(-c2nn(C(F)F)cc2Cc2ccccc2OCCN2CCOC[C@H]2CO)n1
AUC [3]: 0.78 µM·h | Cmax [4]: 2500 nM | t1/2 [5]: 55.8 min | AUC [6]: 0.41 µM·h | Cmax [7]: 450 nM | Tmax [8]: 15 min | F [9]: 11% | AUC [10]: 5.46 µM·h | Cmax [11]: 6100 nM | Tmax [12]: 15 min | permeability [13]: 46.3 ×10⁻⁶ cm/s | logD [14]: 2.89 | solubility kinetic [15]: 79 µg/mL (≈ 160 µM) | Activity [16]: Non-Toxic

COc1ccccc1Cc1cn(C)nc1-c1cc(Cl)nc(N)n1
IC50 [1]: 67 nM

Cn1cc(Cc2ccc(Cl)cc2)c(-c2cc(Cl)nc(N)n2)n1
IC50 [1]: 2580 nM

Nc1nc(Cl)cc(-c2nn(C(F)F)cc2Cc2ccccc2OCC(=O)N2CCOCC2)n1
IC50 [2]: 37.7 nM | IC50 [1]: 24.2 nM | Kd [17]: 4.7 nM

COC(=O)[C@H]1COCCN1CCOc1ccccc1Cc1cn(C(F)F)nc1-c1cc(Cl)nc(N)n1
IC50 [2]: 2.5 nM

Cn1cc(Cc2ccccc2Cl)c(-c2cc(Cl)nc(N)n2)n1
IC50 [1]: 64 nM
